Earlier results in paper PMC11360046 (ACS Omega, 2024).

Test system: BRD4 BD2
Settings: read-out: IC50 BRD4 BD2; I-58

IC50: 1.88 nM
SMILES: CN1CCC(Nc2cccc(CN3c4ccccc4C=C4c5c(cccc53)C(=O)N4C)c2)CC1 [Compound I-58, 1-methyl-6-(3-((1-methylpiperidin-4-yl)amino)benzyl)-1,6-dihydro-2H-benzo[6,7]azepino[4,3,2-cd]isoindol-2-one]
